From ChEMBL document CHEMBL1201862, “PubChem BioAssay data set” (2004)
Active and inactive are the calls of the source.

Assays:
[1] = target: Low molecular weight phosphotyrosine protein phosphatase (Homo sapiens, UniProt P24666); format: functional; settings: read-out: IC50_Mean;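 also: Dose-response confirmation assay measuring inhibition of LMPTP enzyme activity by fluorescence intensity read-out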
[2] = target: Beta Lactamase (Pseudomonas aeruginosa, UniProt Q932Y6); test: BLA reporter interference, concentration series – BLA reporter cells, FRET fluorescence, artefact control for NOD2-RIPK2 interaction inhibitor project, dose response (AID 651552); format: functional, cell-based
[3] = Fluorescence-based cell-based high throughput dose response assay for inhibitors of the interaction of nucleotide-binding oligomerization domain containing 2 (NOD2) and the receptor-interacting serine-threonine kinase 2 (RIPK2).; format: functional; settings: Homo sapiens
[4] = target: Hepatocyte nuclear factor 4-alpha (Homo sapiens, UniProt P41235); format: functional, cell-based;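 also: biochemical luminescence-based dose-response counterscreen measuring inhibition of HNF4 dimerization, run alongside a screen for blockers of ABHD5–perilipin-5 interaction; split luciferase complementation of HNF4 fusion proteins in cell lysate measuring dimerization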
[5] = target: T1, ATP-dependent translocase ABCB1 (Homo sapiens, UniProt P08183); test: inhibition of BCRP-mediated JC-1 efflux – Ig-MXP3 cells, flow cytometry, set 2, dose response (AID 504566); format: functional; settings: read-out: EC50_MICROM_;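 also: flow cytometry median green fluorescence of retained JC-1 dye; potency of efflux pump inhibition measured as rising substrate retention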
[6] = target: T1, ATP-dependent translocase ABCB1; test: P-gp JC-1 efflux blockade concentration-response – Jurkat-DNR cells, flow cytometry, set 2, dose response (AID 504569); format: functional; settings: read-out: EC50_MICROM_;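 also: potency of pump inhibitors that raise cellular JC-1 green fluorescence up to the nicardipine level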
[7] = mouse fibroblast viability loss – cell-based, cherry-pick samples, set 2, cytotoxicity control for T. cruzi growth inhibitor project, dose response (AID 651817); format: functional; settings: NIH3T3
[8] = target: Beta-lactamase (Salmonella choleraesuis (strain SC-B67), UniProt Q5J463)
[9] = target: T1, ATP-dependent translocase ABCB1; test: inhibition of P-gp mediated JC-1 efflux – Jurkat-DNR cells, flow cytometry, dose response (AID 1689); format: functional
[10] = target: Beta-lactamase (Pseudomonas aeruginosa, UniProt Q79MP6);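 also: biochemical dose-response test of metallo-beta-lactamase enzyme inhibition, read out by epi-absorbance; purified recombinant IMP-1 metallo-beta-lactamase with nitrocefin as substrate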
[11] = target: T2, Alkaline phosphatase, tissue-nonspecific isozyme (Homo sapiens, UniProt P05186)
T2 sequence (P05186 whole entry): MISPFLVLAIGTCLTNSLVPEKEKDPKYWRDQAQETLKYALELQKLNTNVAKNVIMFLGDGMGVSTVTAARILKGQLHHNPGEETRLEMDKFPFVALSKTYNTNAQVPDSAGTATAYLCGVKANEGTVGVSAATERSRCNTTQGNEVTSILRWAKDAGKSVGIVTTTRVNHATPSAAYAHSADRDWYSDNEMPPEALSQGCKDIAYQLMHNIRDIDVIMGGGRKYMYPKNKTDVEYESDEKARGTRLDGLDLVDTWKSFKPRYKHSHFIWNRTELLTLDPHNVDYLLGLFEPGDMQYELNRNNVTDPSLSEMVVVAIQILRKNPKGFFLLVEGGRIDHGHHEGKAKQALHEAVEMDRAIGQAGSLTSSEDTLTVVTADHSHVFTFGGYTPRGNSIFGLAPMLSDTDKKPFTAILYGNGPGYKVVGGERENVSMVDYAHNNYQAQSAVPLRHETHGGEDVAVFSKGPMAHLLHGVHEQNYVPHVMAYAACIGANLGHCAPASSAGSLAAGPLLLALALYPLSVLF

[12] = target: T3, Interleukin-8 (Homo sapiens, UniProt P10145); test: Dose Response confirmation of uHTS small molecule hits for cystic fibrosis induced NFkb Inhibitors in a PAF-induced IL8 counterscreen.; format: functional; settings: read-out: IC50_Mean
[13] = target: T3, Interleukin-8; test: Dose Response confirmation of uHTS small molecule hits for cystic fibrosis induced NFkb Inhibitors in a TNFa-induced IL8 counterscreen.; format: functional; settings: read-out: IC50_Mean

T1 sequence (P08183 whole entry): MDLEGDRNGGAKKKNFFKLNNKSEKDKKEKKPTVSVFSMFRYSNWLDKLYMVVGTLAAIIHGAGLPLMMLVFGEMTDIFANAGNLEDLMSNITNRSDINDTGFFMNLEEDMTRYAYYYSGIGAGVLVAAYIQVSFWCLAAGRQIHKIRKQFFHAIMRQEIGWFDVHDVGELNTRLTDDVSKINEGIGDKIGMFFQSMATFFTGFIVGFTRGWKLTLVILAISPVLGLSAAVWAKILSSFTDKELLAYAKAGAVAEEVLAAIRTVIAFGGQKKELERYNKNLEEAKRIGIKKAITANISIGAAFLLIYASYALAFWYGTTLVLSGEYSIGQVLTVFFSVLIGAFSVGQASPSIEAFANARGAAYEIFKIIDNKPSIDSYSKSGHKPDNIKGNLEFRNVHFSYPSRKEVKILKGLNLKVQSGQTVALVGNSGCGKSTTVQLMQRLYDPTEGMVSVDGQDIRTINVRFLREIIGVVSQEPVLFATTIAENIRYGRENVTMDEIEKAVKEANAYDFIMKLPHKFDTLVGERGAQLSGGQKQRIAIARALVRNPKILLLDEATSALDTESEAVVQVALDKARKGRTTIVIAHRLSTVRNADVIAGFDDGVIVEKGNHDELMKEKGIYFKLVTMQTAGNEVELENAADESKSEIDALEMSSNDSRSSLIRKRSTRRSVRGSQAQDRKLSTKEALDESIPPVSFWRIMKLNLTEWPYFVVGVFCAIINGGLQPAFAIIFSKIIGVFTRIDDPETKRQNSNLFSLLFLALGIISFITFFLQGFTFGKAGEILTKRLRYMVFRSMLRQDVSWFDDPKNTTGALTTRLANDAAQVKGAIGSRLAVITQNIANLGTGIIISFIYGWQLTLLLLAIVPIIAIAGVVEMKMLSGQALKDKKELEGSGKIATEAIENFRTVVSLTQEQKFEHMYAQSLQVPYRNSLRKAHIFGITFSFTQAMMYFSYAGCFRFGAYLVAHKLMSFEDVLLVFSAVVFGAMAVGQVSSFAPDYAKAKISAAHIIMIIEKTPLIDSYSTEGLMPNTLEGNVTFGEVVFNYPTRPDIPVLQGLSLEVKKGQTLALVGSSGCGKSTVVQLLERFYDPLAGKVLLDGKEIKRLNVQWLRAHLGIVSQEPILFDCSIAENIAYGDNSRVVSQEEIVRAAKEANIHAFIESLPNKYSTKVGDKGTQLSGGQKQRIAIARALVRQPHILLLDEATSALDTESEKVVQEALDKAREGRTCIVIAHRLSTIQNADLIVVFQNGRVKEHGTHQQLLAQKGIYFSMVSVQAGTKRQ
T3 sequence (P10145 whole entry): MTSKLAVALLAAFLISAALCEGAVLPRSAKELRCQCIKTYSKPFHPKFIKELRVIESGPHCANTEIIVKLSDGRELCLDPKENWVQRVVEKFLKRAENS
Chain of Beta-lactamase (Salmonella choleraesuis (strain SC-B67), UniProt Q5J463) (Q5J463 whole entry): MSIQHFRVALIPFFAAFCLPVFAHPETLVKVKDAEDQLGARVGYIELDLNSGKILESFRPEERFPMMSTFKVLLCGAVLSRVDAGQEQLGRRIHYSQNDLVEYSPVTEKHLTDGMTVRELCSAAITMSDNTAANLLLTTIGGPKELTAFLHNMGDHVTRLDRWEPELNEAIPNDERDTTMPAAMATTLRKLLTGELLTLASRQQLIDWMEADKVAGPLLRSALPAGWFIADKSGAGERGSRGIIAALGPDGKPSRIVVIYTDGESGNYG
Chain of Beta-lactamase (Pseudomonas aeruginosa, UniProt Q79MP6) (Q79MP6 whole entry): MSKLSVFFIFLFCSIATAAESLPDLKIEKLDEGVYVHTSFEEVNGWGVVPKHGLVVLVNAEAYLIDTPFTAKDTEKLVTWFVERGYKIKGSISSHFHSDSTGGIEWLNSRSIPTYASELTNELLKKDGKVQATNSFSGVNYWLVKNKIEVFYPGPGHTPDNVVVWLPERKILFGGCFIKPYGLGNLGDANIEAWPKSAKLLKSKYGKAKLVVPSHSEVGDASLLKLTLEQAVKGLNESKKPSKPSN
Chain of Beta Lactamase (Q932Y6 whole entry, the tested form may be a part): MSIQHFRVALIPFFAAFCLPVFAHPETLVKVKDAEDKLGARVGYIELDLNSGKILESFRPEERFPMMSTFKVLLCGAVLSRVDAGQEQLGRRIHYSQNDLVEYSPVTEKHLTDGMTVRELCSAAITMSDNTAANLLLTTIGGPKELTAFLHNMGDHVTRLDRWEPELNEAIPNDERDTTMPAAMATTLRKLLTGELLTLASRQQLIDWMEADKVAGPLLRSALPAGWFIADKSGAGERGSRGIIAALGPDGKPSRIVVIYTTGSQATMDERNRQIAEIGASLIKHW
Chain of Hepatocyte nuclear factor 4-alpha (P41235 whole entry, the tested form may be a part): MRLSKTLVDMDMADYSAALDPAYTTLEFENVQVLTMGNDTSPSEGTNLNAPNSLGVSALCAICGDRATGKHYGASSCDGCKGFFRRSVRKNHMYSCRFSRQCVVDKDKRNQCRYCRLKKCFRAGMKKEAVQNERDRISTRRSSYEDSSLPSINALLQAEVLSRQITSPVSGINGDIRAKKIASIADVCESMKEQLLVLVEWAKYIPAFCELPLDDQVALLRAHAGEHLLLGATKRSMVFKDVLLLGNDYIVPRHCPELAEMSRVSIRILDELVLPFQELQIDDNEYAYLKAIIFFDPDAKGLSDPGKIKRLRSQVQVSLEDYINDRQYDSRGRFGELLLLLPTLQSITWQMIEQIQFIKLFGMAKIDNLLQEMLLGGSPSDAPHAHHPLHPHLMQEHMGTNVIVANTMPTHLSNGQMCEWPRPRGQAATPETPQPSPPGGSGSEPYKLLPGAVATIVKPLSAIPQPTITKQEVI
Chain of Low molecular weight phosphotyrosine protein phosphatase (P24666 whole entry): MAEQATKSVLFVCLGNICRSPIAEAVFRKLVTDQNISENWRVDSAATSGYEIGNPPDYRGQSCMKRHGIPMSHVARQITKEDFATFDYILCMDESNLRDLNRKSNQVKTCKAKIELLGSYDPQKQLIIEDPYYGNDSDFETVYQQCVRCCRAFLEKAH

## COC(=O)c1ccc(C(=O)OC)c(NC(=O)Cc2cccs2)c1
[1]
  IC50: 27.9 µM (inactive)

## Cc1c(C(=O)Nc2ccccc2)c2ccc(C(F)(F)F)cc2n1O
[2]
  IC50: 19.4 µM (inactive)
[3]
  IC50: 14.5 µM (inactive)

## O=C(NC1CCCCC1)C(c1ccc(-c2ccccc2)cc1)n1c(=O)c(-c2ccco2)nc2ccccc21 (stereo not drawn)
[4]
  IC50: 2.74 µM (active)

## O=C(c1ccoc1)N1CCN(c2cc(-c3ccc(F)cc3)nc3cc(-c4cccc(Cl)c4)nn23)CC1
[5]
  EC50: 2.75 µM (active)
[6]
  EC50: 5.57 µM (active)

## C[C@@H]1CN([C@H](C)CO)C(=O)c2cccc(NC(=O)c3nc4ccccc4s3)c2O[C@H]1CN(C)S(=O)(=O)c1ccccc1
[7]
  AC50: 39 µM (inactive)

## CCN1/C(=C/C=C/c2oc3ccc4ccccc4c3[n+]2CC)Oc2ccc3ccccc3c21
[8]
  IC50: > 59.6 µM (inactive)
[9]
  EC50: 713 nM (active)
[10]
  IC50: > 59.6 µM (inactive)
[11]
  EC50: > 100 µM (not active)

## COc1cccc(-c2ccc3ncnc(NCc4cc(C)cs4)c3c2)c1
[12]
  IC50: 12.4 µM (inactive)
[13]
  IC50: 5.37 µM (active)
